Measured values reported in patent US4402961A, “Derivatives of 1-(2-,3- or 4-quinolyl)-2- or -3-(2- or 3-piperidyl or -pyrrolidinyl) ethanone or propanone, and their utilization as antiarrhythmics, anticonvulsivants and for the treatment of anxiety” (Pharmindustrie, priority 1980, dated 1983).

target: Cerebral Binding Sites of the Benzodiazepines; experiment: not given; conditions: not given

Compound	Ki [nM]
COc1ccc2nccc(CCCC3CCCNC3)c2c1 (stereo not drawn) [Example 11, 6-methoxy-4-[3-(3-piperidyl)-propyl]-quinoline]	5500
c1ccc(-c2cc(CCC3CCCCN3)c3ccccc3n2)cc1 (stereo not drawn) [Example 22, 2-phenyl-4-[2-(2-piperidyl)-ethyl]-quinoline]	600
O=C(CCC1CCCNC1)c1cc(-c2ccccc2)nc2ccccc12 (stereo not drawn) [Example 4, 1-[4-(2-phenyl)quinolyl]-3-(3-piperidyl)-1-propanone]	800
COc1ccc2nccc(C(=O)CCC3CCCNC3)c2c1 (stereo not drawn) [Example 1, 1-[4-(6-methoxy)quinolyl]-3-(3-piperidyl)-1-propanone]	2000
c1ccc(-c2cc(CCC3CCNC3)c3ccccc3n2)cc1 (stereo not drawn) [Example 29, 2-phenyl-4-[2-(3-pyrrolidinyl)-ethyl]-quinoline]	700
c1ccc(-c2cc(CCCC3CCCNC3)c3ccccc3n2)cc1 (stereo not drawn) [Example 14, 2-phenyl-4-[3-(3-piperidyl)-propyl]-quinoline]	1000
CN1CCCC(CCc2cc(-c3ccccc3)nc3ccccc23)C1 (stereo not drawn) [Example 23, 4-{2-[3-(1-methyl)piperidyl]-ethyl}-2-phenyl-quinoline]	900
c1ccc(-c2cc(CCCC3CCCCN3)c3ccccc3n2)cc1 (stereo not drawn) [Example 30, 4-[3-(2-piperidyl)-propyl]-2-phenyl-quinoline]	2700
c1ccc(-c2cc(CCC3CCCNC3)c3ccccc3n2)cc1 (stereo not drawn) [Example 13, 2-phenyl-4-[2-(3-piperidyl)-ethyl]-quinoline]	100
Clc1ccc(-c2cc(CCC3CCCNC3)c3ccccc3n2)cc1 (stereo not drawn) [Example 20, 2-(4-chloro-phenyl)-4-[2-(3-piperidyl)-ethyl]-quinoline]	1600
CN1CCCC(CCCc2cc(-c3ccccc3)nc3ccccc23)C1 (stereo not drawn) [Example 24, 4-{3-[3-(1-methyl)piperidyl]-propyl}-2-phenyl-quinoline]	3000

system: ventricular arrhythmias caused by the aconitine; experiment: aconitine test on the rat (antiarrhythmic activity); type: in vivo; conditions: iv, read-out: ED50, dose which increases by 50% the time of perfusion of the aconitine versus control animals
Description: The principle of the method rests on the time of induction of the ventricular arrhythmias caused by the aconitine which is slowly perfused in rats. An antiarrhythmic substance retards the appearance of the arrhythmias and the delay is proportional to the activity of the molecule.
Groups of 5 male rats are used. An individual annesthesia is realized (10% urethane: 1 g/kg/ip) in order to permit a catheterization of the vein of the penis. The electrocardiogram is recorded. At time T=O the substance studied is injected in the form of an aqueous solution, at the rate of 2.5 ml of solution per kg in 30 seconds. At time T=90 seconds, say 1 minute after the end of the injection, the aconitine is perfused at the rate of 20 μg per minute, until the appearance of extra […] systoles. The time of perfusion of the aconitine is noted.
The results are expressed by ED50, which is the dose of product in mg/kg which increases by 50% the time of perfusion of the aconitine in comparison with the perfusion time of aconitine for the control animals.

Compound	ED50 [mg/kg]
COc1ccc2nccc(CCCC3CCCNC3)c2c1 (stereo not drawn) [Example 11, 6-methoxy-4-[3-(3-piperidyl)-propyl]-quinoline]	7.8
O=C(CC1CCCNC1)c1cc(-c2ccccc2)nc2ccccc12 (stereo not drawn) [Example 3, 1-[4-(2-phenyl)quinolyl]-2-(3-piperidyl)-ethanone]	2.8
c1ccc(-c2cc(CCCC3CCCNC3)c3ccccc3n2)cc1 (stereo not drawn) [Example 14, 2-phenyl-4-[3-(3-piperidyl)-propyl]-quinoline]	2.2

target: Cerebral Binding Sites of the Benzodiazepines; experiment: displacement of tritiated Diazepam (3H Diazepam) from cerebral benzodiazepine binding sites (method of Mohler and Coll.); conditions: read-out: KD, constant of affinity of 3H Diazepam; constant used in the Ki formula

Compound	Kd [nM]
CN1C(=O)CN=C(c2ccccc2)c2cc(Cl)ccc21 [^3 H Diazepam]	2740
